Experimental data taken from the supplement of paper PMC10307832.

What was measured:
Test in all cases: relative viability (nuclei count vs DMSO), 5 days (fraction); higher = more cells survive
NCI-H1355 = tested on: NCI-H1355
Procedure, shortened: (§1)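 One day after seeding in 1536-well plates, lung cancer cell lines were dosed by pin tool. Dosing was either single-drug or a fixed anchor-drug dose plus five library-drug doses (not always all listed) in √10 steps. After 5 days, nuclei were stained in one fix-and-stain step and counted on 4× images, and relative viability is the nuclei count of treated wells over that of vehicle wells, given as the median of duplicate plates.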

UMC-11 = tested on: UMC-11
Procedure, shortened: as §1

NCI-H1563 = tested on: NCI-H1563
Procedure, shortened: as §1

NCI-H1944 = tested on: NCI-H1944
Procedure, shortened: as §1

NCI-H1651 = tested on: NCI-H1651
Procedure, shortened: as §1

LCLC-97TM1 = tested on: LCLC-97TM1
Procedure, shortened: as §1

ChaGo-K-1 = tested on: ChaGo-K-1
Procedure, shortened: as §1

HCC-44 = tested on: HCC-44
Procedure, shortened: as §1

NCI-H650 = tested on: NCI-H650
Procedure, shortened: as §1

EPLC-272H = tested on: EPLC-272H
Procedure, shortened: as §1

SK-MES-1 = tested on: SK-MES-1
Procedure, shortened: as §1

NCI-H2405 = tested on: NCI-H2405
Procedure, shortened: as §1

LCLC-103H = tested on: LCLC-103H
Procedure, shortened: as §1

NCI-H322M = tested on: NCI-H322M
Procedure, shortened: as §1

HCC-827 = tested on: HCC-827
Procedure, shortened: as §1

NCI-H520 = tested on: NCI-H520
Procedure, shortened: as §1

NCI-H2087 = tested on: NCI-H2087
Procedure, shortened: as §1

NCI-H2085 = tested on: NCI-H2085
Procedure, shortened: as §1

EMC-BAC-2 = tested on: EMC-BAC-2
Procedure, shortened: as §1

H3255 = tested on: H3255
Procedure, shortened: as §1

NCI-H2023 = tested on: NCI-H2023
Procedure, shortened: as §1

## O=C(O)c1ccc(-c2c[nH]c3ncc(-c4ccccc4)cc23)cc1C1CCCC1 + C[C@@H](Oc1cc(-c2cnn(C3CCNCC3)c2)cnc1N)c1c(Cl)ccc(F)c1Cl [Crizotinib] (partner 1 µM)
NCI-H1355; first compound 0.04 µM
  relative viability: 1.05
NCI-H1355; first compound 0.1265 µM
  relative viability: 1.14
NCI-H1355; first compound 0.4 µM
  relative viability: 1.04
NCI-H1355; first compound 1.265 µM
  relative viability: 0.752
UMC-11; first compound 0.04 µM
  relative viability: 0.587
UMC-11; first compound 0.1265 µM
  relative viability: 0.629
UMC-11; first compound 0.4 µM
  relative viability: 0.646
UMC-11; first compound 1.265 µM
  relative viability: 0.612
NCI-H1563; first compound 0.04 µM
  relative viability: 0.787
NCI-H1563; first compound 0.1265 µM
  relative viability: 0.91
NCI-H1563; first compound 0.4 µM
  relative viability: 0.851
NCI-H1563; first compound 1.265 µM
  relative viability: 0.875
NCI-H1944; first compound 0.04 µM
  relative viability: 1.03
NCI-H1944; first compound 0.1265 µM
  relative viability: 1.14
NCI-H1944; first compound 0.4 µM
  relative viability: 1.08
NCI-H1944; first compound 1.265 µM
  relative viability: 1.01
NCI-H1651; first compound 0.04 µM
  relative viability: 0.852
NCI-H1651; first compound 0.1265 µM
  relative viability: 0.929
NCI-H1651; first compound 0.4 µM
  relative viability: 0.822
NCI-H1651; first compound 1.265 µM
  relative viability: 0.742
LCLC-97TM1; first compound 0.04 µM
  relative viability: 0.376
LCLC-97TM1; first compound 0.1265 µM
  relative viability: 0.329
LCLC-97TM1; first compound 0.4 µM
  relative viability: 0.234
LCLC-97TM1; first compound 1.265 µM
  relative viability: 0.326
ChaGo-K-1; first compound 0.04 µM
  relative viability: 1.11
ChaGo-K-1; first compound 0.1265 µM
  relative viability: 1.1
ChaGo-K-1; first compound 0.4 µM
  relative viability: 1.04
ChaGo-K-1; first compound 1.265 µM
  relative viability: 0.846
HCC-44; first compound 0.04 µM
  relative viability: 0.764
HCC-44; first compound 0.1265 µM
  relative viability: 0.823
HCC-44; first compound 0.4 µM
  relative viability: 0.812
HCC-44; first compound 1.265 µM
  relative viability: 0.577
NCI-H650; first compound 0.04 µM
  relative viability: 0.762
NCI-H650; first compound 0.1265 µM
  relative viability: 0.844
NCI-H650; first compound 0.4 µM
  relative viability: 0.561
NCI-H650; first compound 1.265 µM
  relative viability: 0.465
EPLC-272H; first compound 0.04 µM
  relative viability: 0.974
EPLC-272H; first compound 0.1265 µM
  relative viability: 1.01
EPLC-272H; first compound 0.4 µM
  relative viability: 0.989
EPLC-272H; first compound 1.265 µM
  relative viability: 0.655
SK-MES-1; first compound 0.04 µM
  relative viability: 0.942
SK-MES-1; first compound 0.1265 µM
  relative viability: 1.01
SK-MES-1; first compound 0.4 µM
  relative viability: 0.953
SK-MES-1; first compound 1.265 µM
  relative viability: 0.774
NCI-H2405; first compound 0.04 µM
  relative viability: 0.862
NCI-H2405; first compound 0.1265 µM
  relative viability: 0.94
NCI-H2405; first compound 0.4 µM
  relative viability: 0.841
NCI-H2405; first compound 1.265 µM
  relative viability: 0.715
LCLC-103H; first compound 0.04 µM
  relative viability: 0.997
LCLC-103H; first compound 0.1265 µM
  relative viability: 1.05
LCLC-103H; first compound 0.4 µM
  relative viability: 1.03
LCLC-103H; first compound 1.265 µM
  relative viability: 1.04
NCI-H322M; first compound 0.04 µM
  relative viability: 0.943
NCI-H322M; first compound 0.1265 µM
  relative viability: 0.918
NCI-H322M; first compound 0.4 µM
  relative viability: 1.01
NCI-H322M; first compound 1.265 µM
  relative viability: 0.839
HCC-827; first compound 0.04 µM
  relative viability: 0.88
HCC-827; first compound 0.1265 µM
  relative viability: 0.95
HCC-827; first compound 0.4 µM
  relative viability: 0.897
HCC-827; first compound 1.265 µM
  relative viability: 0.724
NCI-H520; first compound 0.04 µM
  relative viability: 0.748
NCI-H520; first compound 0.1265 µM
  relative viability: 1.02
NCI-H520; first compound 0.4 µM
  relative viability: 0.744
NCI-H520; first compound 1.265 µM
  relative viability: 0.828
NCI-H2087; first compound 0.04 µM
  relative viability: 0.853
NCI-H2087; first compound 0.1265 µM
  relative viability: 0.75
NCI-H2087; first compound 0.4 µM
  relative viability: 0.833
NCI-H2087; first compound 1.265 µM
  relative viability: 0.723
NCI-H2085; first compound 0.04 µM
  relative viability: 0.832
NCI-H2085; first compound 0.1265 µM
  relative viability: 0.804
NCI-H2085; first compound 0.4 µM
  relative viability: 0.878
NCI-H2085; first compound 1.265 µM
  relative viability: 0.696
EMC-BAC-2; first compound 0.04 µM
  relative viability: 0.76
EMC-BAC-2; first compound 0.1265 µM
  relative viability: 0.806
EMC-BAC-2; first compound 0.4 µM
  relative viability: 0.671
EMC-BAC-2; first compound 1.265 µM
  relative viability: 0.672
H3255; first compound 0.04 µM
  relative viability: 0.953
H3255; first compound 0.1265 µM
  relative viability: 0.851
H3255; first compound 0.4 µM
  relative viability: 0.825
H3255; first compound 1.265 µM
  relative viability: 0.9
NCI-H2023; first compound 0.04 µM
  relative viability: 0.639
NCI-H2023; first compound 0.1265 µM
  relative viability: 0.669
NCI-H2023; first compound 0.4 µM
  relative viability: 0.572
NCI-H2023; first compound 1.265 µM
  relative viability: 0.603
